What was measured:
[1] = target: T1, rat CYP17 (rat testicular microsomes) (Rattus norvegicus, UniProt P11715); assay: CYP17 inhibition assay in rat testicular microsomes; type: biochemical
T1 construct: Rat testis tissue was collected and disrupted with 30 strokes of a glass homogenizer; from tissue; host or cells: rat testis (microsomes)
T1 sequence (P11715 1-507): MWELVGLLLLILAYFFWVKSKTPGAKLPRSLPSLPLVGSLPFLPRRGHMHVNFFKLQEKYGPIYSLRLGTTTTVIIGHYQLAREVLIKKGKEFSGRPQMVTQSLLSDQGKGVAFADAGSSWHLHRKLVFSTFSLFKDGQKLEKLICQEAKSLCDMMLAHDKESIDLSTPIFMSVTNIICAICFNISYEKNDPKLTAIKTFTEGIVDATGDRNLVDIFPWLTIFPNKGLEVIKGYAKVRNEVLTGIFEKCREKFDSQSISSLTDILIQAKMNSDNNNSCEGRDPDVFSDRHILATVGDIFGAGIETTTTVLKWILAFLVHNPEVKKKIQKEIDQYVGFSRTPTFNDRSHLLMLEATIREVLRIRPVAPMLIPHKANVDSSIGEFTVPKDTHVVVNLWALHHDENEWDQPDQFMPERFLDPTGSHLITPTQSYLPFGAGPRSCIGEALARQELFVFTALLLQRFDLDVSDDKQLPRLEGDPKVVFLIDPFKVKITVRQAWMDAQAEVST
Experimental: CYP17 Inhibition Assay in Rat Testicular Microsomes (Rat CYP17) or Yeast Microsome Overexpressing Human CYP17
1. NADPH (Sigma): A working stock was prepared by adding 25 μL of 6.5 mM NADPH in each tube. The final concentration of NADPH used in the assay was 325 μM.
2. Potassium Phosphate Buffer: One molar (1M) solutions of K2HPO4 and KH2PO4 were prepared. Eight mL of the 1 M KH2PO4 and 1.98 mL of the 1 M K2HPO4 were combined and the pH was adjusted to 7.4.
3. ^3H3-17α-hydroxypregnenolone (American Radiolabeled Chemicals, Inc., stock 1 μCi/μL): A 1:1 dilution of ^3H3-17α-hydroxypregnenolone in ethanol was prepared by combining 100 μL ^3H3-17α-hydroxypregnenolone+100 μL ethanol for one complete 96 well plate. For the reaction, 2 μL of the diluted ^3H3-17α-hydroxypregnenolone was added in each tube, i.e., 1 μCi/reaction. 4. Microsome Isolation Buffer: The microsome isolation buffer was prepared by combining 250 mM Sucrose, 5 mM EDTA, 10 mM Tris HCl, 4 mM DTT, and adjusting to pH 7.4. 5. TEG Buffer: The TEG buffer was prepared by combining 50 mM Tris HCl, 1 mM EDTA, and 20% Glycerol. 6. Rat Testicular Microsomes: Rat testis tissue was collected and disrupted with 30 strokes of a glass homogenizer on ice with 250 μL of microsome isolation buffer, followed by centrifugation at 10,000 g for 10 minutes at 4° C. The supernatant was collected and centrifuged at 100,000 g for 45 minutes at 4° C. The pellet was dissolved in TEG Buffer and the protein was quantified. The homogenized microsome samples were then frozen at −80° C. • 7. Yeast Microsomes which overexpress the human CYP17 enzyme were obtained from Premas Biotech, India.
Potassium phosphate buffer (470 μL) was prepared as described above and was added to each well of a deep well plate. The test compound was diluted using a TECAN liquid handler and 5 μL of diluted compound was transferred to each well (96 deep well/1 mL). A solution (25 μL) of 6.5 mM NADPH was added (final concentration of 325 μM in the assay). ^3H3-17α-hydroxypregnenolone (2 μL of the working stock) was added to each tube. The plates were then pre-incubated for 15 minutes at 37° C. Following the pre-incubation, either 5 μL rat testicular microsomes (150-160 μg) or 5 μL of yeast microsomes expressing human CYP17 (1.7 pmol), was added. Incubation was at 37° C. for 60 minutes in the presence of oxygen. The plates were then placed in ice and chloroform (500 μL) was added, mixed well and incubated at 4° C. for 20 minutes. The plates were then centrifuged at 1000 rpm for 15 minutes at 4° C.
A portion (300 μL) of the aqueous solution was collected and mixed with a 5% aqueous suspension of activated charcoal (300 μL). The plates were then incubated at 4° C. for 30 minutes, after which the plates were centrifuged at 1000 rpm for 15 minutes at 4° C. From this, 125 μL of the aqueous solution was collected and plated into a 96 well plate. Microscint™ 40 [125 μL, Perkin-Elmer; containing a mixture of a polymer based on alkylphenolethoxylate (20-40%), diethanolamine-phosphoric acid ester ammonium salt (10-20%), sodium dioctyl sulphosuccinate (2.5-10%), triethyl phosphate (2.5-10%), 3,6-dimethyl-4-octyne-3,6-diol (≦2.5%), a polymer based on nonylphenolethoxylate (≦2.5%), diisopropyl naphthalene isomers (40-60%), 2,5-diphenyloxazole (≦2.5%), and 9,10-dimethylanthracene] was added and mixed well. After 30 minutes of incubation, the samples were analyzed with a MicroBeta® Trilux microplate liquid scintillation counter and luminometer (Perkin-Elmer).

[2] = target: T2, human CYP17 in H295R adrenocortical carcinoma cells (Homo sapiens, UniProt P05093); assay: Cell-based human CYP17 inhibition assay, H295R cells; conditions: 16 hours, read-out: CYP17 (human H295R adrenal cells)
T2 construct: H295R Adrenocortical carcinoma cells [NCI-H295A, ATCC Number CRL-2128, American Type Culture Collection; host or cells: H295R adrenocortical carcinoma cells
T2 sequence (P05093 1-508): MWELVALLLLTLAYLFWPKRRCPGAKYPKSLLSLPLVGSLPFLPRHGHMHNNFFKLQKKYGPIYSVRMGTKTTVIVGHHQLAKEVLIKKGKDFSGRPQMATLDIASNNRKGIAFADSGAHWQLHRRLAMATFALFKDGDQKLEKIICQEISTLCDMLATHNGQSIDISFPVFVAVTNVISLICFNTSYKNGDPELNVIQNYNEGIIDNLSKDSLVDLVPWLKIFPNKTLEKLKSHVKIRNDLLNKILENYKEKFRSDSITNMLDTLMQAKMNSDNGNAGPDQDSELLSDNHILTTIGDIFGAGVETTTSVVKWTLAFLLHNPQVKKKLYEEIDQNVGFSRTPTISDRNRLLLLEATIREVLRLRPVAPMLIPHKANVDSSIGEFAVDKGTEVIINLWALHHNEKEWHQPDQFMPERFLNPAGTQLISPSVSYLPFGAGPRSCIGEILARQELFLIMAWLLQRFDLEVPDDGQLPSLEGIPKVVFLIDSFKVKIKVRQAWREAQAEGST
Experimental: Cell-Based Human CYP17 Inhibition Assay
1. H295R Adrenocortical Carcinoma Cells and Growth Media: The media for the H295R Adrenocortical carcinoma cells [NCI-H295A, ATCC Number CRL-2128, American Type Culture Collection, Manassas, Va., US] (500 mL) was a DMEM:F12 Mix 1:1 with 5% (2 mL) BD Nu Serum; 1% (5 mL) ITS+Premix [BD Biosciences] and 1% Penstrep. 2. LNCap-CYP17 Cells and Growth Media: Full length hCYP17a1 gene (NCBI Reference Sequence: NM_000102.3) was cloned in pcDNA3.1(+) vector between HindIII and XhoI site. The pcDNA3.1(+) vector contains the Neomycin resistance gene and was used for selection of stable cell line. The hCYP17a1 containing pcDNA3.1(+) was transfected into LNCap cells to create the LNCap-CYP17 cell line. The media for the LNCaP-CYP17 cells was RPMI 1640, 10% FBS, 1% PenStrep, Geneticin 400 μg/mL.
The H295R cells or LNCaP-hCYP17 cells were subcultured and 30,000 cells per well were seeded in a poly-d lysine plate and incubated overnight at 37° C. The next day the media was removed and 200 μL of fresh media with ^3H3-17α-hydroxy-pregnenolone (1:1000) was added. 50 μL of serially diluted compounds from a 5× plate (5 times the final desired concentration) was added. The working concentration range for active, new compounds started from a high concentration of 10 μM with 3-fold serial dilutions generating up to 10 concentrations. The serial dilution in the 100× plate (in DMSO) and the stamping of a 5× plate (in media) from the 100× plate were carried out using a TECAN liquid handling device.
The plates were incubated overnight (16 hours) at 37° C. After 16 hours, the media was removed (approximately 220 μL) and an equal amount of chloroform was added, mixed and incubated for 30 minutes at 4 degrees. The plate was centrifuged at 4000 rpm for 15 minutes at 4° C., following which the top aqueous layer was carefully removed and added into a new deep well plate. An equal volume of activated 5% charcoal was added, mixed and incubated for 30 minutes at 4° C. The plate was then centrifuged at 4000 rpm for 15 minutes at 4° C. and the top layer carefully separated, avoiding any charcoal contamination, and placed in a white, clear bottom plate (plate cat #3610, Corning Life Sciences). An equal volume of Microscint™ 40 was added and mixed well. Following the incubation for 30 minutes, readings for the radiotracer were taken using a Microbeta® trilux.

Row | IC50 [1] [µM] | IC50 [2] [µM] | Compound
1 | 0.05 to 0.2 | 0.201 to 10 | CCC(O)(c1ccncc1)c1ncc(-c2cn[nH]c2)o1 (stereo not shown) [Example 57, 1-(5-(1H-pyrazol-4-yl)oxazol-2-yl)-1-(pyridin-4-yl)propan-1-ol]
2 | < 0.05 | 0.05 to 0.2 | CC(O)(c1ccncc1)c1cnc(-c2ccc(Cl)c(C(F)(F)F)c2)s1 (stereo not shown) [Example 39, 1-(2-(4-chloro-3-(trifluoromethyl)phenyl)thiazol-5-yl)-1-(pyridin-4-yl)ethanol]
3 | < 0.05 | 0.05 to 0.2 | CC(O)(c1ccncc1)c1nnc(-c2ccc(F)cc2)s1 (stereo not shown) [Example 61, 1-(5-(4-fluorophenyl)-1,3,4-thiadiazol-2-yl)-1-(pyridin-4-yl)ethanol]
4 | 0.05 to 0.2 | 0.201 to 10 | CC(=O)NC(C)(c1ccncc1)c1cnc(-c2ccc(F)cc2)s1 (stereo not shown) [Example 69, N-(1-(2-(4-Fluorophenyl)thiazol-5-yl)-1-(pyridin-4-yl)ethyl)acetamide]
5 | < 0.05 | 0.05 to 0.2 | CC(O)(c1ccncc1)c1cc(-c2ccc(F)cc2)on1 (stereo not shown) [Example 50, 1-(5-(4-fluorophenyl)isoxazol-3-yl)-1-(pyridin-4-yl)ethanol]
6 | < 0.05 | < 0.05 | CC(O)(c1ccncc1)c1cc(-c2ccc(F)cc2)ns1 (stereo not shown) [Example 48, 1-(3-(4-fluorophenyl)isothiazol-5-yl)-1-(pyridin-4-yl)ethanol]
7 | < 0.05 | < 0.05 | CC(O)(c1ccncc1)c1ncc(-c2ccc(F)cc2)s1 (single isomer, unassigned; (-)) [Example 54, (−)-1-(5-(4-fluorophenyl)thiazol-2-yl)-1-(pyridin-4-yl)ethanol]
8 | < 0.05 | < 0.05 | CC(O)(c1ccncc1)c1cnc(-c2ccc(F)c(Cl)c2)s1 (stereo not shown) [Example 46, 1-(2-(3-chloro-4-fluorophenyl)thiazol-5-yl)-1-(pyridin-4-yl)ethanol]
9 | 0.05 to 0.2 | 0.201 to 10 | OC1(c2cnc(-c3ccc(F)cc3)s2)CCc2cnccc21 (stereo not shown) [Example 59, 5-(2-(4-fluorophenyl)thiazol-5-yl)-6,7-dihydro-5H-cyclopenta[c]pyridin-5-ol]
10 | < 0.05 | < 0.05 | CC(O)(c1ccncc1)c1cnc(-c2ccc(C(F)(F)F)c(Cl)c2)s1 (stereo not shown) [Example 41, 1-(2-(3-chloro-4-(trifluoromethyl)phenyl)thiazol-5-yl)-1-(pyridin-4-yl)ethanol]

More lines, now with the values behind:

Row | Compound | IC50 [1] [µM] | IC50 [2] [µM]
11 | COc1ccc(-c2ccc(C(C)(O)c3ccncc3)nc2)cc1F (stereo not shown) [Example 6, 1-(5-(3-fluoro-4-methoxyphenyl)-pyridin-2-yl)-1-(pyridin-4-yl)ethanol] | < 0.05 | 0.05 to 0.2
12 | CCC(O)(c1ccncc1)c1nnc(-c2ccc(F)cc2)s1 (stereo not shown) [Example 21, 1-(5-(4-fluorophenyl)-1,3,4-thiadiazol-2-yl)-1-(pyridin-4-yl)propan-1-ol] | < 0.05 | 0.201 to 10
13 | CCC(O)(c1ccncc1)c1ncc(-c2ccc(F)cc2)s1 (stereo not shown) [Example 13, 1-(5-(4-Fluorophenyl)thiazol-2-yl)-1-(pyridin-4-yl)propan-1-ol] | < 0.05 | 0.201 to 10
14 | CC(C)C(O)(c1ccncc1)c1cnc(-c2ccc(F)cc2)s1 (stereo not shown) [Example 33, 1-[2-(4-Fluoro-phenyl)-thiazol-5-yl]-2-methyl-1-pyridin-4-yl-propan-1-ol] | < 0.05 | < 0.05
15 | CC(O)(c1ccncc1)c1ccc(-c2ccc(C#N)nc2)cn1 (stereo not shown) [Example 12, 6′-(1-Hydroxy-1-(pyridin-4-yl)ethyl)-[3,3′-bipyridine]-6-carbonitrile] | < 0.05 | 0.05 to 0.2
16 | CC(O)(c1ccncc1)c1ccc(-c2ccc(F)cc2)cn1 (stereo not shown) [Example 5, 1-(5-(4-fluorophenyl)-pyridin-2-yl)-1-(pyridin-4-yl)ethanol] | < 0.05 | 0.201 to 10
17 | CC(O)(c1ccncc1)c1noc(-c2ccc(F)cc2)n1 (stereo not shown) [Example 29, 1-(5-(4-Fluorophenyl)-1,2,4-oxadiazol-3-yl)-1-(pyridin-4-yl)ethanol] | < 0.05 | 0.201 to 10
